What was measured:
c-KIT = molecular target: T1, c-KIT (Homo sapiens, UniProt P10721); experiment: c-KIT recombinant enzyme kinase assay (AlphaScreen); assay type: biochemical; settings: 100 ATP, 8 pt
T1 construct: purchased Millipore 14-559K
How it was run: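 Recombinant enzyme phosphorylated biotinylated poly(Glu4-Tyr) peptide (30 nM final) with ATP at 10 μM for FLT3-ITD and FLT3-D835Y or 100 μM for c-KIT. Phosphopeptide was detected by AlphaScreen with streptavidin donor and anti-phosphotyrosine (PY20) acceptor beads (10 μg/mL), read at 580 nm, for IC50 determination.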

[1] = test system: MOLM-14 D835Y (endogenous FLT3 ITD and transfected FLT3 D835Y); experiment: MOLM-14 D835Y cell proliferation assay (CellTiter-Glo); assay type: cell-based; settings: Homo sapiens, MOLM-14, 72 h; 3 d growth, GMean
How it was run: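 MOLM-14 derivatives carrying D835Y or F691L, selected under escalating AC220, were seeded at 1×10^4 cells/well and exposed to an 8-point 1:3 compound series (1 to 0.00046 μM, 0.2% DMSO final) for three days at 37° C., 5% CO2. CellTiter-Glo luminescence (ATP content) versus concentration gave IC50.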

T1 sequence (P10721 26-976): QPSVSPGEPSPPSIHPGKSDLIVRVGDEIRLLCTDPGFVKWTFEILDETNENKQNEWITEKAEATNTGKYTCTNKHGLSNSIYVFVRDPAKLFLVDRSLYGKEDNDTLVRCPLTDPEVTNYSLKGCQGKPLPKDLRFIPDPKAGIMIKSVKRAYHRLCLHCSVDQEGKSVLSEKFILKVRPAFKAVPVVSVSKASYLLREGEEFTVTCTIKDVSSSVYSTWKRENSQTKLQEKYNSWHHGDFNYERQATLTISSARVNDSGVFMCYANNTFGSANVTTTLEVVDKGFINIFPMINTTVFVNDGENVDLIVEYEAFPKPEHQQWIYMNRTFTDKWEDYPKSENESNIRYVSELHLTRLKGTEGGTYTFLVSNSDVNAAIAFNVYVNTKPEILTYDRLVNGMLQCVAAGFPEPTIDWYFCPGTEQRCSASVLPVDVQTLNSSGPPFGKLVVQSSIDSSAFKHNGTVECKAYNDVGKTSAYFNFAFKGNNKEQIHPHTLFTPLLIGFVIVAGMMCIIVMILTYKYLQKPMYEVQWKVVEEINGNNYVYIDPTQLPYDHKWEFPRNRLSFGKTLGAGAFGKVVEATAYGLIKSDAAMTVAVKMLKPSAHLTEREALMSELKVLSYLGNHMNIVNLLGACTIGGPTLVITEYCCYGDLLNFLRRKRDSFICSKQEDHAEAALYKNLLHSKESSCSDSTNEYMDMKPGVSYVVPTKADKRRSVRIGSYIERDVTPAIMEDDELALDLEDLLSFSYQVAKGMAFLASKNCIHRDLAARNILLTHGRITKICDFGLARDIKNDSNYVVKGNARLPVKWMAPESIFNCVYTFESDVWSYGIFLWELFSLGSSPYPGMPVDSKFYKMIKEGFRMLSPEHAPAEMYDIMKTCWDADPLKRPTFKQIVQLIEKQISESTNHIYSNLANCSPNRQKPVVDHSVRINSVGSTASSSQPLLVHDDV

Structure (SMILES) | IC50 (c-KIT) [µM] | IC50 [1] [µM]
COc1ncc(NC(=O)Cc2ccc(-c3cnc4[nH]c(C#CC(C)(C)O)cc4c3)cc2)cc1C(F)(F)F [Compound P-0214, 2-(4-(2-(3-hydroxy-3-methylbut-1-yn-1-yl)-1H-pyrrolo[2,3-b]pyridin-5-yl)phenyl)-N-(6-methoxy-5-(trifluoromethyl)pyridin-3-yl)acetamide] | 0.0001 to 10 | 0.0001 to 10
COc1ncc(NC(=O)Cc2ccc(-c3cnc4[nH]nc(NC(=O)C(F)(F)F)c4c3)cc2)cc1C(F)(F)F [Compound P-0215, 2,2,2-trifluoro-N-[5-[4-[2-[[6-methoxy-5-(trifluoromethyl)-3-pyridyl]amino]-2-oxo-ethyl]phenyl]-1H-pyrazolo[3,4-b]pyridin-3-yl]acetamide] | 0.0001 to 10 | 0.0001 to 10
COc1ncc(NC(=O)Cc2ccc(-c3cnc4[nH]nc(N)c4c3)cc2)cc1C(F)(F)F [Compound P-0216, 2-(4-(3-amino-1H-pyrazolo[3,4-b]pyridin-5-yl)phenyl)-N-(6-methoxy-5-(trifluoromethyl)pyridin-3-yl)acetamide] | 0.0001 to 10 | 0.0001 to 10
CCOc1n[nH]c2ncc(-c3ccc(CC(=O)Nc4cnc(C)c(C(F)(F)F)c4)cc3)cc12 [Compound P-0217, 2-[4-(3-ethoxy-1H-pyrazolo[3,4-b]pyridin-5-yl)phenyl]-N-[6-methyl-5-(trifluoromethyl)-3-pyridyl]acetamide] | 0.0001 to 10 | 0.0001 to 10
COc1n[nH]c2ncc(-c3ccc(CC(=O)Nc4cnc(C)c(C(F)(F)F)c4)cc3)cc12 [Compound P-0218, 2-[4-(3-methoxy-1H-pyrazolo[3,4-b]pyridin-5-yl)phenyl]-N-[6-methyl-5-(trifluoromethyl)-3-pyridyl]acetamide] | 0.0001 to 10 | 0.0001 to 10
Cc1ncc(NC(=O)Cc2ccc(-c3cnc4[nH]c(C#CC(C)(C)O)cc4c3)cc2)cc1C(F)(F)F [Compound P-0220, 2-[4-[2-(3-hydroxy-3-methyl-but-1-ynyl)-1H-pyrrolo[2,3-b]pyridin-5-yl]phenyl]-N-[6-methyl-5-(trifluoromethyl)-3-pyridyl]acetamide] | 0.0001 to 10 | 0.0001 to 10
Cc1nn(C)cc1Nc1ncc(-c2ccc(CC(=O)Nc3cnc(C)c(C(F)(F)F)c3)cc2)cn1 [Compound P-0228, 2-[4-[2-[(1,3-dimethylpyrazol-4-yl)amino]pyrimidin-5-yl]phenyl]-N-[6-methyl-5-(trifluoromethyl)-3-pyridyl]acetamide] | 0.0001 to 10 | 0.0001 to 10
O=C(Cc1ccc(-c2cnc(Nc3cnn(C4CC4)c3)nc2)cc1)Nc1cncc(C(F)(F)F)c1 [Compound P-0231, 2-[4-[2-[(1-cyclopropylpyrazol-4-yl)amino]pyrimidin-5-yl]phenyl]-N-[5-(trifluoromethyl)-3-pyridyl]acetamide] | 0.0001 to 10 | 0.0001 to 10
Cc1ncc(NC(=O)Cc2ccc(-c3cnc(Nc4cnn(C5CC5)c4)nc3)cc2)cc1C(F)(F)F [Compound P-0232, 2-[4-[2-[(1-cyclopropylpyrazol-4-yl)amino]pyrimidin-5-yl]phenyl]-N-[6-methyl-5-(trifluoromethyl)-3-pyridyl]acetamide] | 0.0001 to 10 | 0.0001 to 10
COc1ncc(NC(=O)Cc2ccc(-c3cnc(Nc4cnn(C5CC5)c4)nc3)cc2)cc1C(F)(F)F [Compound P-0234, 2-[4-[2-[(1-cyclopropylpyrazol-4-yl)amino]pyrimidin-5-yl]phenyl]-N-[6-methoxy-5-(trifluoromethyl)-3-pyridyl]acetamide] | 0.0001 to 10 | 0.0001 to 10
O=C(Cc1ccc(-c2cnc(Nc3cnn(C4CC4)c3)nc2)cc1F)Nc1cncc(C(F)(F)F)c1 [Compound P-0238, 2-[4-[2-[(1-cyclopropylpyrazol-4-yl)amino]pyrimidin-5-yl]-2-fluoro-phenyl]-N-[5-(trifluoromethyl)-3-pyridyl]acetamide] | 0.0001 to 10 | 0.0001 to 10

The remaining lines, values ahead:

IC50 (c-KIT) [µM] | IC50 [1] [µM] | Structure (SMILES)
0.0001 to 10 | 0.0001 to 10 | CCOc1n[nH]c2ncc(-c3ccc(CC(=O)Nc4cnc(OC)c(C(F)(F)F)c4)cc3)cc12 [Compound P-0213, 2-(4-(3-ethoxy-1H-pyrazolo[3,4-b]pyridin-5-yl)phenyl)-N-(6-methoxy-5-(trifluoromethyl)pyridin-3-yl)acetamide]
0.0001 to 10 | 0.0001 to 10 | COc1ncc(NC(=O)Cc2ccc(-c3cnc(Nc4cn[nH]c4C)nc3)cc2)cc1C(F)(F)F [Compound P-0221, N-[6-methoxy-5-(trifluoromethyl)-3-pyridyl]-2-[4-[2-[(5-methyl-1H-pyrazol-4-yl)amino]pyrimidin-5-yl]phenyl]acetamide]
0.0001 to 10 | 0.0001 to 10 | COCCn1cc(Nc2ncc(-c3ccc(CC(=O)Nc4cc(C(F)(F)F)ccn4)cc3)cn2)cn1 [Compound P-0222, 2-[4-[2-[[1-(2-methoxyethyl)pyrazol-4-yl]amino]pyrimidin-5-yl]phenyl]-N-[4-(trifluoromethyl)-2-pyridyl]acetamide]
0.0001 to 10 | 0.0001 to 10 | Cc1ncc(NC(=O)Cc2ccc(-c3cnc(Nc4cnn(C)c4C)nc3)cc2)cc1C(F)(F)F [Compound P-0229, 2-[4-[2-[(1,5-dimethylpyrazol-4-yl)amino]pyrimidin-5-yl]phenyl]-N-[6-methyl-5-(trifluoromethyl)-3-pyridyl]acetamide]
0.0001 to 10 | 0.0001 to 10 | COc1ncc(NC(=O)Cc2ccc(-c3cnc4[nH]nc(Cl)c4c3)cc2)cc1C(F)(F)F [Compound P-0230, 2-[4-(3-chloro-1H-pyrazolo[3,4-b]pyridin-5-yl)phenyl]-N-[6-methoxy-5-(trifluoromethyl)-3-pyridyl]acetamide]
0.0001 to 10 | 0.0001 to 10 | O=C(Cc1ccc(-c2cnc(Nc3cnn(C4CC4)c3)nc2)cc1)Nc1cnc(Cl)c(C(F)(F)F)c1 [Compound P-0233, N-[6-chloro-5-(trifluoromethyl)-3-pyridyl]-2-[4-[2-[(1-cyclopropylpyrazol-4-yl)amino]pyrimidin-5-yl]phenyl]acetamide]
0.0001 to 10 | 0.0001 to 10 | O=C(Cc1ccc(-c2cnc(Nc3cnn(C4CC4)c3)nc2)cc1)Nc1ccc(C(F)(F)F)nc1 [Compound P-0235, 2-[4-[2-[(1-cyclopropylpyrazol-4-yl)amino]pyrimidin-5-yl]phenyl]-N-[6-(trifluoromethyl)-3-pyridyl]acetamide]
0.0001 to 10 | 0.0001 to 10 | O=C(Cc1ccc(-c2cnc(Nc3cnn(C4CC4)c3)nc2)cc1)Nc1ccc(C(F)(F)F)cn1 [Compound P-0236, 2-[4-[2-[(1-cyclopropylpyrazol-4-yl)amino]pyrimidin-5-yl]phenyl]-N-[5-(trifluoromethyl)-2-pyridyl]acetamide]
0.0001 to 10 | 0.0001 to 10 | O=C(Cc1ccc(-c2cnc(Nc3cnn(C4CC4)c3)nc2)cc1)Nc1cc(C(F)(F)F)ccn1 [Compound P-0237, 2-[4-[2-[(1-cyclopropylpyrazol-4-yl)amino]pyrimidin-5-yl]phenyl]-N-[4-(trifluoromethyl)-2-pyridyl]acetamide]
0.0001 to 10 | 0.0001 to 10 | Cc1ncc(NC(=O)Cc2ccc(-c3cnc(Nc4cnn(C5CC5)c4)nc3)cc2F)cc1C(F)(F)F [Compound P-0239, 2-[4-[2-[(1-cyclopropylpyrazol-4-yl)amino]pyrimidin-5-yl]-2-fluoro-phenyl]-N-[6-methyl-5-(trifluoromethyl)-3-pyridyl]acetamide]
